From US6517836B1, “Nitrophenylaziridine compounds and their use as prodrugs” (Auckland Uniservices Limited, priority 1998, dated 2003) come the findings set out here.

Where two headings read alike, the source gives them in different places.

The test system of series [1] is Chinese hamster fibroblast NR+ line (T79-A3), NR transfectant. The series can be described thus: Cytotoxicity, 18 h drug exposure, V79 NR+ line (T79-A3). In kind it is cell-based. The conditions noted are these: for V-79 ratio of IC50s: T78-1 vs T79-A3, inter-experiment average; for IC50: T79-A3 cells, 18 h drug exposure, read-out: V-79 NR+ IC50. An excerpt:
(§1) The Chinese hamster fibroblast NR− line (T78-1) is a V79/4 Chinese hamster fibroblast transfected with an empty shuttle vector, while the NR+ line (T79-A3) is the corresponding NR transfectant. The human colon carcinoma NR− line (WIDR) is wild-type, while the NR+ line (WC14 10) is the corresponding NR transfectant. The human ovarian carcinoma NR− line (SKOV3) is wild-type, while the NR+ line (SC3.2) is the corresponding NR transfectant. EMT6 is a mouse mammary carcinoma line, and EN2A is the NR-transformed counterpart.

Series [2] deals with Chinese hamster fibroblast NR− line (T78-1), V79/4 transfected with an empty shuttle vector. The series can be described thus: Cytotoxicity, 18 h drug exposure, V79 NR− line (T78-1). In kind it is cell-based. The conditions noted are these: T78-1 cells, 18 h drug exposure, read-out: V-79 NR− IC50.
Text: as §1

The subject of series [3] is human colon carcinoma NR+ line (WC14 10), NR transfectant. As to the kind of experiment: Cytotoxicity, 18 h drug exposure, WiDr NR+ line (WC14 10). It is filed as cell-based. The conditions noted are these: for IC50: WC14 10 cells, 18 h drug exposure, read-out: WiDr NR+ IC50; for WiDr ratio of IC50s: WIDR vs WC14 10, inter-experiment average.
Text: as §1

The test system of series [4] is EMT6 mouse mammary carcinoma line. As to the kind of experiment: Cytotoxicity, 18 h drug exposure, EMT6 NR− line. The conditions noted are these: EMT6 cells, 18 h drug exposure, read-out: EMT6 NR− IC50. In kind it is cell-based.
Text: as §1

Series [5] relates to human colon carcinoma NR− line (WIDR), wild-type. As to the kind of experiment: Cytotoxicity, 18 h drug exposure, WiDr NR− line. In kind it is cell-based. The conditions noted are these: WIDR cells, 18 h drug exposure, read-out: WiDr NR− IC50.
Text: as §1

In series [6] the test system is human ovarian carcinoma NR+ line (SC3.2), NR transfectant. As to the kind of experiment: Cytotoxicity, 18 h drug exposure, SKOV NR+ line (SC3.2). In kind it is cell-based. The conditions noted are these: for IC50: SC3.2 cells, 18 h drug exposure, read-out: SKOV NR+ IC50; for SKOV ratio of IC50s: SKOV3 vs SC3.2, inter-experiment average.
Text: as §1

For series [7], the system named is EN2A, NR-transformed counterpart of EMT6. The series can be described thus: Cytotoxicity, 18 h drug exposure, EMT6 NR+ line (EN2A). In kind it is cell-based, mouse. The conditions noted are these: for EMT6 ratio of IC50s: EMT6 vs EN2A, inter-experiment average; for IC50: EN2A cells, 18 h drug exposure, read-out: EMT6 NR+ IC50.
Text: as §1

Series [8] has as its system human ovarian carcinoma NR− line (SKOV3), wild-type. As to the kind of experiment: Cytotoxicity, 18 h drug exposure, SKOV3 NR− line. The conditions noted are these: SKOV3 cells, 18 h drug exposure, read-out: SKOV NR− IC50. It is filed as cell-based.
Text: as §1

Take `NC(=O)c1cc([N+](=O)[O-])c(Cl)cc1N1CC1`: the melting point – broadly, the temperature, or range, at which the solid turns liquid – was 155 °C.
With `NC(=O)c1ccc(Cl)c([N+](=O)[O-])c1N1CC1`, the melting point was 216 °C.
With `O=C(NCCN1CCOCC1)c1cc(N2CC2)c([N+](=O)[O-])cc1[N+](=O)[O-]` [Compound 3, 5-(aziridin-1-yl)-N-[2-(4-morpholino)ethyl]-2,4-dinitrobenzamide], the “V-79 ratio of IC50s” value in [1] is recorded as 4160. Besides, the IC50 – broadly, the concentration at which inhibition is half-maximal – turned out to be 0.15 µM in [1]; 571 µM in series [2]; 0.72 µM in series [3]; 229 µM in series [4]; 131 µM in series [5]; 0.45 µM in series [6]. Besides, the IC50 worked out at 0.061 µM in [7] and 494 µM in series [8]. For the same compound, the “WiDr ratio of IC50s” value in series [3] worked out at 183. For the same compound, the “SKOV ratio of IC50s” value in [6] worked out at 1100. Also, the “EMT6 ratio of IC50s” value in series [7] is listed as 4505.
Take `CS(=O)(=O)c1cc([N+](=O)[O-])c(N2CC2)cc1C(=O)NCC(O)CO` (centres unmarked) [Compound 10, 5-(aziridin-1-yl)-N-(2,3-dihydroxypropyl)-2-(methylsulfonyl)-4-nitrobenzamide]: the IC50 turned out to be 8.8 µM in series [1] (Cricetulus griseus, Fibroblast); 641 µM in series [2] (Cricetulus griseus); 26 µM in [3] (Homo sapiens, WiDr); 454 µM in [4] (Mus musculus); 826 µM in [5] (Homo sapiens); 6.2 µM in series [6] (Homo sapiens). Moreover, the IC50 was 3.7 µM in series [7] (Mus musculus, EMT6) and 920 µM in series [8] (Homo sapiens, SK-OV-3). In addition, in series [1], the “V-79 ratio of IC50s” value is on record as 87. Also, the “WiDr ratio of IC50s” value in series [3] was 33. In addition, the “SKOV ratio of IC50s” value in series [6] is 159. The “EMT6 ratio of IC50s” value in [7] turned out to be 124.
Turning to `NC(=O)c1c([N+](=O)[O-])ccc(N2CC2)c1[N+](=O)[O-]` [Compound 13, 3-(aziridin-1-yl)-2,6-dinitrobenzamide], the IC50 amounted to 135 µM in series [1] (Cricetulus griseus, Fibroblast); 437 µM in series [2] (Cricetulus griseus); 58 µM in series [3] (Homo sapiens, WiDr); 287 µM in series [4] (Mus musculus); 312 µM in [5] (Homo sapiens); 66 µM in [6] (Homo sapiens). For the same compound, the IC50 in [7] (Mus musculus, EMT6) turned out to be 27 µM; in series [8] (Homo sapiens, SK-OV-3), 584 µM. Further, the “V-79 ratio of IC50s” value in series [1] was determined as 3.8. Further, the “WiDr ratio of IC50s” value in series [3] is listed as 5.9. Also, in [6], the “SKOV ratio of IC50s” value worked out at 9.5. In series [7], the “EMT6 ratio of IC50s” value is given as 10.
Consider `NC(=O)c1cc([N+](=O)[O-])cc([N+](=O)[O-])c1N1CC1` [Compound 14, 2-(aziridin-1-yl)-3,5-dinitrobenzamide], for which the IC50 in series [1] (Cricetulus griseus, Fibroblast) was 1.2 µM; in series [2] (Cricetulus griseus), 1080 µM; in [3] (Homo sapiens, WiDr) it was 13 µM; in series [4] (Mus musculus) it was 769 µM; in [5] (Homo sapiens) it was 1080 µM; in series [6] (Homo sapiens) it was 6.1 µM. The IC50 worked out at 1.3 µM in series [7] (Mus musculus, EMT6) and 1700 µM in series [8] (Homo sapiens, SK-OV-3). Further, the “V-79 ratio of IC50s” value in series [1] is given as 864. The “WiDr ratio of IC50s” value in [3] was determined as 85. In series [6], the “SKOV ratio of IC50s” value was 280. Besides, in series [7], the “EMT6 ratio of IC50s” value is 626.
The compound `NC(=O)c1cc([N+](=O)[O-])c(N2CC2)c([N+](=O)[O-])c1` [Compound 19, 4-(Aziridin-1-yl)-3,5-dinitrobenzamide] gave a melting point of 228 to 231 °C. Moreover, the IC50 in series [1] (Cricetulus griseus, Fibroblast) is above 20 µM. Moreover, in series [2] (Cricetulus griseus), the IC50 is above 20 µM. For the same compound, in series [3] (Homo sapiens, WiDr), the IC50 is above 20 µM. In addition, the IC50 in [4] (Mus musculus) is above 20 µM. Further, the IC50 in [5] (Homo sapiens) is above 20 µM. The IC50 in series [6] (Homo sapiens) was above 20 µM. For the same compound, the IC50 in series [7] (Mus musculus, EMT6) is above 20 µM. Also, the IC50 in [8] (Homo sapiens, SK-OV-3) is above 20 µM.
